{
  "source": "paper PMC5827971",
  "about": "(Cell, 2017)",
  "key": {"CLYBL [1]": {"biological_target": "T1, CLYBL (Homo sapiens, UniProt Q8N0X4)", "T1 sequence (Q8N0X4 23-340)": "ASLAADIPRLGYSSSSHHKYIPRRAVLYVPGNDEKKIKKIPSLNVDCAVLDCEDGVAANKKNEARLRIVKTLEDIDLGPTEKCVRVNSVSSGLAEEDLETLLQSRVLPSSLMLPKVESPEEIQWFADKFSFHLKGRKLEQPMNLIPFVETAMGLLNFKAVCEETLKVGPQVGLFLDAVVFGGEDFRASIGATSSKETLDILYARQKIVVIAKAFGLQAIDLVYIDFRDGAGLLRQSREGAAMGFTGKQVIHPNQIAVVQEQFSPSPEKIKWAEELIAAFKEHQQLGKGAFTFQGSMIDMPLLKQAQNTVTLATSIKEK", "assay": "HPLC-UV discontinuous assay, CoASH formation", "type": "biochemical", "settings": "20 mM glyoxylate, 2.5-200 µM acyl-CoA, 20 mM Tris pH 7.5, 5 mM MgCl2, 1 mM TCEP, 37 °C"}, "CLYBL [2]": {"biological_target": "T1, CLYBL", "assay": "HPLC-UV discontinuous assay, acetyl-CoA formation", "type": "biochemical", "settings": "citramalyl-CoA lyase; 0.625-80 µM substrate, 20 mM Tris pH 7.5, 5 mM MgCl2, 1 mM TCEP, 37 °C"}},
  "data": [
    {"smiles": "CC(=O)SCCNC(=O)CCNC(=O)[C@H](O)C(C)(C)COP(=O)(O)OP(=O)(O)OC[C@H]1O[C@@H](n2cnc3c(N)ncnc32)[C@H](O)[C@@H]1OP(=O)(O)O", "note": "[acetyl-CoA]", "values": [
      {"measurement": "KM", "setting": "CLYBL [1]; malate synthase", "value": "KM values for acetyl-CoA or propionyl-CoA, the substrates in the forward reaction"}
    ]},
    {"smiles": "CC(C)(COP(=O)(O)OP(=O)(O)OC[C@H]1O[C@@H](n2cnc3c(N)ncnc32)[C@H](O)[C@@H]1OP(=O)(O)O)[C@@H](O)C(=O)NCCC(=O)NCCSC(=O)C[C@](C)(O)C(=O)O", "note": "[citramalyl-CoA]", "values": [
      {"measurement": "KM", "setting": "CLYBL [2]", "value": "The KM value for citramalyl-CoA is comparable to the KM values for acetyl-CoA or propionyl-CoA"}
    ]},
    {"smiles": "CCC(=O)SCCNC(=O)CCNC(=O)[C@H](O)C(C)(C)COP(=O)(O)OP(=O)(O)OC[C@H]1O[C@@H](n2cnc3c(N)ncnc32)[C@H](O)[C@@H]1OP(=O)(O)O", "note": "[propionyl-CoA]", "values": [
      {"measurement": "KM", "setting": "CLYBL [1]; methylmalate synthase", "value": "KM values for acetyl-CoA or propionyl-CoA, the substrates in the forward reaction"}
    ]}
  ]
}
